Values joined by “and” are separate entries in the source; they are usually repeats but may differ in a detail not shown here. Identical values can stand only once. Toxic doses and inconclusive results are not listed. Rule as the data show it: active = T/C of 150% or more; inactive = T/C below 125%.
System: L1210 leukemia ip in BDF1 mice, survival T/C
Test: NCI In Vivo Anticancer Drug Screen. Data for tumor model L1210 Leukemia (intraperitoneal) in B6D2F1 (BDF1) mice
Conditions: endpoint: mean survival time, higher = longer survival
Method in brief: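 Mice bearing the transplanted tumor received compound or vehicle. Survival of the treated group was divided by that of the vehicle-treated control group to give the ratio.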

[1] = dose: 50.0 mg/kg/injection, schedule: Q01DX001 (ip), vehicle: carboxymethylcellulose (CMC)
[2] = dose: 100.0 mg/kg/injection, schedule: Q01DX001 (ip), vehicle: carboxymethylcellulose (CMC)
[3] = dose: 100.0 mg/kg/injection, schedule: Q04DX003 (ip), vehicle: saline
[4] = dose: 200.0 mg/kg/injection, schedule: Q01DX001 (ip), vehicle: carboxymethylcellulose (CMC)
[5] = dose: 200.0 mg/kg/injection, schedule: Q04DX003 (ip), vehicle: saline
[6] = dose: 400.0 mg/kg/injection, schedule: Q01DX001 (ip), vehicle: carboxymethylcellulose (CMC)
[7] = dose: 400.0 mg/kg/injection, schedule: Q04DX003 (ip), vehicle: saline
[8] = dose: 100.0 mg/kg/injection, schedule: Q01DX009 (ip), vehicle: saline with Tween-80
[9] = dose: 100.0 mg/kg/injection, schedule: Q04DX002 (ip), vehicle: saline with Tween-80
[10] = dose: 100.0 mg/kg/injection, schedule: Q04DX003 (ip), vehicle: saline with Tween-80
[11] = dose: 200.0 mg/kg/injection, schedule: Q01DX009 (ip), vehicle: saline with Tween-80
[12] = dose: 200.0 mg/kg/injection, schedule: Q04DX002 (ip), vehicle: saline with Tween-80
[13] = dose: 200.0 mg/kg/injection, schedule: Q04DX003 (ip), vehicle: saline with Tween-80
[14] = dose: 400.0 mg/kg/injection, schedule: Q01DX009 (ip), vehicle: saline with Tween-80
[15] = dose: 400.0 mg/kg/injection, schedule: Q04DX002 (ip), vehicle: saline with Tween-80
[16] = dose: 400.0 mg/kg/injection, schedule: Q04DX003 (ip), vehicle: saline with Tween-80
[17] = dose: 100.0 mg/kg/injection, schedule: Q04DX003 (ip), vehicle: Klucel (hydroxypropylcellulose) (HPC)
[18] = dose: 200.0 mg/kg/injection, schedule: Q04DX003 (ip), vehicle: Klucel (hydroxypropylcellulose) (HPC)
[19] = dose: 400.0 mg/kg/injection, schedule: Q04DX003 (ip), vehicle: Klucel (hydroxypropylcellulose) (HPC)
[20] = dose: 100.0 mg/kg/injection, schedule: Q01DX001 (ip), vehicle: saline
[21] = dose: 200.0 mg/kg/injection, schedule: Q01DX001 (ip), vehicle: saline
[22] = dose: 400.0 mg/kg/injection, schedule: Q01DX001 (ip), vehicle: saline
[23] = dose: 100.0 mg/kg/injection, schedule: Q01DX009 (ip), vehicle: saline
[24] = dose: 200.0 mg/kg/injection, schedule: Q01DX009 (ip), vehicle: saline

Measured: T/C

C[C@]12CC[C@@H]3c4cc([N+]#N)c([O-])cc4CC[C@H]3[C@@H]1CCC2=O
inactive: dose: 25.0 mg/kg/injection, schedule: Q01DX009 (ip), vehicle: Klucel (hydroxypropylcellulose) (HPC) 103 % of control | dose: 25.0 mg/kg/injection, schedule: Q04DX002 (ip), vehicle: Klucel (hydroxypropylcellulose) (HPC) 96 % of control | dose: 50.0 mg/kg/injection, schedule: Q01DX009 (ip), vehicle: Klucel (hydroxypropylcellulose) (HPC) 92 % of control | dose: 50.0 mg/kg/injection, schedule: Q04DX002 (ip), vehicle: Klucel (hydroxypropylcellulose) (HPC) 122 % of control | dose: 100.0 mg/kg/injection, schedule: Q04DX002 (ip), vehicle: Klucel (hydroxypropylcellulose) (HPC) 100 % of control and 101 % of control

NC(=O)SCC(N)C(=O)O (stereo not given)
inactive: [1] 101 % of control | [2] 90 % of control | [3] 104 % of control | [4] 95 % of control | [5] 110 % of control | [6] 101 % of control | [7] 116 % of control

CCc1cccc(CC)c1NC(=O)Nc1cc(Cl)ccc1C
inactive: dose: 25.0 mg/kg/injection, schedule: Q04DX003 (ip), vehicle: saline with Tween-80 94 % of control | dose: 50.0 mg/kg/injection, schedule: Q04DX003 (ip), vehicle: saline with Tween-80 105 % of control and 86 % of control | dose: 100.0 mg/kg/injection, schedule: Q01DX001 (ip), vehicle: saline with Tween-80 105 % of control | [8] 97 % of control and 111 % of control | [9] 95 % of control and 103 % of control | [10] 87 % of control and 91 % of control | dose: 200.0 mg/kg/injection, schedule: Q01DX001 (ip), vehicle: saline with Tween-80 90 % of control | [11] 97 % of control and 113 % of control | [12] 103 % of control | [13] 91 % of control | dose: 400.0 mg/kg/injection, schedule: Q01DX001 (ip), vehicle: saline with Tween-80 89 % of control | [14] 94 % of control and 97 % of control | [15] 98 % of control and 89 % of control | [16] 88 % of control

COc1cc(/C=N/N(c2ccccc2)C2CCS(=O)(=O)C2)ccc1O (stereo not given)
inactive: dose: 100.0 mg/kg/injection, schedule: Q04DX002 (ip), vehicle: saline 93 % of control | dose: 200.0 mg/kg/injection, schedule: Q04DX002 (ip), vehicle: saline 101 % of control | dose: 400.0 mg/kg/injection, schedule: Q04DX002 (ip), vehicle: saline 93 % of control

CCN1CCCC(Nc2nc(C(Cl)(Cl)Cl)nc3cc(Cl)ccc23)C1 (stereo not given)
inactive: [8] 104 % of control | [10] 87 % of control | [13] 89 % of control | [16] 88 % of control

Cc1c([N+](=O)[O-])cc(CCn2cnc3c(=O)[nH]cnc32)cc1[N+](=O)[O-]
inactive: [1] 98 % of control | [2] 98 % of control | [4] 95 % of control | [6] 104 % of control

C/C(=C\Nc1cccnc1)C(=O)c1ccc(F)cc1
inactive: [8] 102 % of control | [11] 102 % of control | [14] 98 % of control

Cc1cc(O)c(C(C)C)cc1NC(=O)C(Cl)Cl
inactive: [17] 98 % of control | [18] 101 % of control | [19] 107 % of control

C/C(CNc1nc(N)nc(N)c1N=Nc1ccc(Cl)cc1)=N\NC(N)=O
inactive: [20] 94 % of control | [21] 98 % of control | [22] 94 % of control

CCCCCCC(O)/C=C/c1ccc(Cl)cc1 (stereo not given)
inactive: [8] 94 % of control | [11] 91 % of control

CCOP(=O)(OCC)C(C)OC (stereo not given)
inactive: [23] 95 % of control | [24] 93 % of control | dose: 400.0 mg/kg/injection, schedule: Q01DX009 (ip), vehicle: saline 104 % of control

CCCn1nnc2ccccc2c1=Nc1ccccc1Cl
inactive: dose: 50.0 mg/kg/injection, schedule: Q01DX009 (ip), vehicle: saline 97 % of control | [23] 88 % of control | [3] 110 % of control | [24] 97 % of control | [5] 106 % of control | [7] 100 % of control

O=Cc1cc(=O)[nH]c(NC(=O)C(Cl)Cl)n1
inactive: [20] 101 % of control | [21] 104 % of control | [22] 89 % of control

CC(=O)Nc1ccc(Cc2[nH]c(=O)[nH]c(=O)c2Br)cc1
inactive: dose: 100.0 mg/kg/injection, schedule: Q01DX001 (ip), vehicle: Klucel (hydroxypropylcellulose) (HPC) 93 % of control | dose: 200.0 mg/kg/injection, schedule: Q01DX001 (ip), vehicle: Klucel (hydroxypropylcellulose) (HPC) 93 % of control

COC(=O)C12OCC34C(CC5C(C)=C(O)C(=O)CC5(C)C3C(O)C1O)OC(=O)C(OC(=O)/C=C(\C)C(C)(C)O)C24 (stereo not given)
inactive: dose: 0.06 mg/kg/injection, schedule: Q01DX009 (ip), vehicle: saline with Tween-80 116 % of control | dose: 0.5 mg/kg/injection, schedule: Q01DX009 (ip), vehicle: saline with Tween-80 112 % of control | dose: 1.0 mg/kg/injection, schedule: Q01DX009 (ip), vehicle: saline with Tween-80 105 % of control | dose: 2.0 mg/kg/injection, schedule: Q01DX009 (ip), vehicle: saline with Tween-80 107 % of control

COC(=O)c1c(C(=O)N(C)C)n[nH]c1C1OCC2OC(C)(C)OC21 (stereo not given)
inactive: dose: 100.0 mg/kg/injection, schedule: Q01DX005 (ip), vehicle: saline 100 % of control | dose: 200.0 mg/kg/injection, schedule: Q01DX005 (ip), vehicle: saline 100 % of control

COc1cc(OC)c(-c2nc3ccc(C)cc3c(=O)o2)cc1OC
inactive: [9] 103 % of control | [12] 100 % of control | [15] 103 % of control

Clc1cc(C(Cl)(Cl)Cl)c(Cl)cc1C(Cl)(Cl)Cl
inactive: dose: 25.0 mg/kg/injection, schedule: Q04DX003 (ip), vehicle: Klucel (hydroxypropylcellulose) (HPC) 93 % of control | dose: 50.0 mg/kg/injection, schedule: Q04DX003 (ip), vehicle: Klucel (hydroxypropylcellulose) (HPC) 104 % of control | dose: 100.0 mg/kg/injection, schedule: Q01DX009 (ip), vehicle: saline sonified 120 % of control | [17] 97 % of control | dose: 200.0 mg/kg/injection, schedule: Q01DX009 (ip), vehicle: saline sonified 104 % of control | [18] 94 % of control | dose: 400.0 mg/kg/injection, schedule: Q01DX009 (ip), vehicle: saline sonified 94 % of control | [19] 94 % of control

CC(=O)OC1=C(C)CCCC(C)(C)C1
inactive: dose: 75.0 mg/kg/injection, schedule: Q01DX001 (ip), vehicle: other 92 % of control | dose: 150.0 mg/kg/injection, schedule: Q01DX001 (ip), vehicle: other 92 % of control | dose: 300.0 mg/kg/injection, schedule: Q01DX001 (ip), vehicle: other 97 % of control

C1CN=C2CCCN2C1
inactive: dose: 18.75 mg/kg/injection, schedule: Q01DX009 (ip), vehicle: saline 100 % of control | dose: 37.5 mg/kg/injection, schedule: Q01DX009 (ip), vehicle: saline 97 % of control

CCOC(=O)C(C(=O)OCC)C(=O)c1cccc2c1ccc1ccccc12
inactive: [9] 95 % of control | [12] 107 % of control | [15] 100 % of control

O=C(O)c1cccc([N+](=O)[O-])c1O
inactive: dose: 12.5 mg/kg/injection, schedule: Q04DX002 (ip), vehicle: saline with Tween-80 95 % of control | dose: 25.0 mg/kg/injection, schedule: Q04DX002 (ip), vehicle: saline with Tween-80 95 % of control | [1] 97 % of control | dose: 50.0 mg/kg/injection, schedule: Q04DX002 (ip), vehicle: saline with Tween-80 100 % of control | [2] 87 % of control | dose: 100.0 mg/kg/injection, schedule: Q01DX009 (ip), vehicle: Klucel (hydroxypropylcellulose) (HPC) 103 % of control | [17] 93 % of control | [4] 87 % of control | dose: 200.0 mg/kg/injection, schedule: Q01DX009 (ip), vehicle: Klucel (hydroxypropylcellulose) (HPC) 95 % of control | [18] 90 % of control | [6] 92 % of control | dose: 400.0 mg/kg/injection, schedule: Q01DX009 (ip), vehicle: Klucel (hydroxypropylcellulose) (HPC) 93 % of control | [19] 96 % of control
